According to ChEMBL document CHEMBL1201862, “PubChem BioAssay data set” (2004):
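Assay format: 96-well plates, 48-hour exposure. The concentration for 50% growth inhibition is given as GI50.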 Calls of active or inactive are those of the source. Cut-off read from the data, not from the text of the source: active = GI50 up to about 1.1 µM and inactive = higher.

Experiments:
Assay in all cases: NCI-60 cell line screen, 48 h
[1] = tested on: CAKI-1
[2] = tested on: CCRF-CEM
[3] = tested on: EKVX
[4] = tested on: HCT-116
[5] = tested on: HL-60
[6] = tested on: HOP-92
[7] = tested on: HT-29
[8] = tested on: NCI-H23
[9] = tested on: OVCAR-4
[10] = tested on: OVCAR-8
[11] = tested on: SF-295
[12] = tested on: SF-539
[13] = tested on: SK-MEL-28
[14] = tested on: SK-MEL-2
[15] = tested on: SNB-75
[16] = tested on: SR
[17] = tested on: UACC-62
[18] = tested on: OVCAR-5

Measured: GI50

CCOC1c2nc3ccccc3nc2-c2ccccc2N1C(C)=O (configuration not stated)
inactive: [1] > 100 µM | [2] > 100 µM | [3] > 100 µM | [4] > 100 µM | [5] > 100 µM | [6] 29.2 µM | [7] > 100 µM | [8] > 100 µM | [9] 74.6 µM | [10] 48.2 µM | [11] 69.3 µM | [12] > 100 µM | [13] > 100 µM | [14] 81.7 µM | [15] 46.2 µM | [16] > 100 µM | [17] > 100 µM

CC1(C)c2ccccc2N2O[C@@H]3C(=O)N(c4ccccc4)C(=O)[C@@H]3C21c1ccccc1 (some centres not stated)
inactive: [1] > 100 µM | [2] 52.8 µM | [3] > 100 µM | [5] 30.8 µM | [7] > 100 µM | [8] > 100 µM | [10] > 100 µM | [11] > 100 µM | [12] > 100 µM | [13] > 100 µM | [14] > 100 µM | [15] 84.1 µM | [17] > 100 µM

CN/N=C(\C)C(CN1CCCCC1)C(C1=C(O)c2ccccc2OC1)c1ccccc1 (configuration not stated)
inactive: [1] > 100 µM | [2] 69.2 µM | [3] > 100 µM | [4] > 100 µM | [5] 35.2 µM | [7] > 100 µM | [8] > 100 µM | [9] > 100 µM | [18] > 100 µM | [10] > 100 µM | [11] 82 µM | [12] > 100 µM | [13] > 100 µM | [14] > 100 µM | [15] > 100 µM | [16] 51.3 µM | [17] 48 µM

CNC(=O)CN(CC(=O)NC)C(=O)NC
inactive: [1] > 100 µM | [2] > 100 µM | [3] > 100 µM | [5] > 100 µM | [6] > 100 µM | [7] > 100 µM | [8] > 100 µM | [9] > 100 µM | [18] > 100 µM | [10] > 100 µM | [11] > 100 µM | [12] > 100 µM | [13] > 100 µM | [14] > 100 µM | [15] > 100 µM | [16] > 100 µM | [17] > 100 µM

COC(=O)C1=C(C(=O)OC)SC(=CC#CC=C2SC(C(=O)OC)=C(C(=O)OC)S2)S1
inactive: [1] 25.5 µM | [2] > 100 µM | [3] 52.2 µM | [4] 11.7 µM | [5] > 100 µM | [6] 16.2 µM | [7] 24.9 µM | [8] 5.81 µM | [9] 9.33 µM | [18] > 90.6 µM | [10] 5.04 µM | [11] 2.82 µM | [12] 2.19 µM | [13] 18.4 µM | [14] 12.9 µM | [15] 7 µM | [16] > 100 µM | [17] 8.26 µM

CN1C(=O)n2c(nc3ccccc32)C(N=[N+]=[N-])(N=[N+]=[N-])C1=O (configuration not stated)
inactive: [1] 35.2 µM | [2] 68.9 µM | [3] > 100 µM | [4] > 100 µM | [5] > 100 µM | [6] 86.5 µM | [7] > 100 µM | [8] > 100 µM | [9] > 100 µM | [18] > 100 µM | [10] > 100 µM | [11] > 100 µM | [12] > 100 µM | [13] > 100 µM | [14] > 100 µM | [15] 57.3 µM | [17] > 100 µM

O=S(=O)([C-]([I+]c1ccccc1)S(=O)(=O)C(F)(F)C(F)(F)C(F)(F)C(F)(F)F)C(F)(F)C(F)(F)C(F)(F)C(F)(F)F
inactive: [1] 13.2 µM | [2] 4.06 µM | [3] 13.5 µM | [5] 4.67 µM | [6] 8.77 µM | [7] 17.4 µM | [8] 19.1 µM | [9] 2.95 µM | [18] 17.2 µM | [10] > 10 µM | [11] 16.6 µM | [12] 15.5 µM | [13] 15.8 µM | [15] 14.8 µM | [16] 4.14 µM | [17] 17.9 µM

N/N=C1\C(=O)N(CCc2ccccc2)C(=O)C1C(=O)NCCc1ccccc1 (configuration not stated)
inactive: [1] > 100 µM | [2] > 100 µM | [3] > 100 µM | [4] > 100 µM | [5] > 100 µM | [6] > 100 µM | [7] > 100 µM | [8] > 100 µM | [11] > 100 µM | [12] > 100 µM | [13] > 100 µM | [14] > 100 µM | [15] > 100 µM | [16] > 100 µM | [17] > 100 µM

CCC(=O)C1=C(OC(C)=O)C2Cc3c(n(C)c4ccccc34)C(C1)N2C (configuration not stated)
inactive: [1] 33.7 µM | [2] 27 µM | [3] 64.3 µM | [4] 29.9 µM | [5] 21.6 µM | [6] 67 µM | [7] 30.8 µM | [8] 68.9 µM | [9] 28.4 µM | [18] > 100 µM | [10] 18.9 µM | [11] > 100 µM | [12] 16.7 µM | [13] 71.8 µM | [14] 63.7 µM | [15] 25.5 µM | [16] 36.1 µM | [17] 26.2 µM

COc1cc2c(cc1OC)-c1cc3cc(OC)c(OC)cc3n1CC2
inactive: [1] 55.7 µM | [2] > 100 µM | [3] > 100 µM | [4] 32.4 µM | [5] > 100 µM | [6] 60.3 µM | [7] 16.6 µM | [8] 81.1 µM | [9] 22.7 µM | [18] > 100 µM | [10] 24.1 µM | [11] 13.2 µM | [13] 34 µM | [14] > 100 µM | [15] 18.5 µM | [16] > 100 µM | [17] 85.5 µM

CC1CCP(=O)(c2ccccc2)c2ccccc21 (configuration not stated)
inactive: [2] 37.7 µM | [3] > 100 µM | [4] 23 µM | [5] 19.6 µM | [7] > 100 µM | [8] > 100 µM | [9] 38.5 µM | [18] > 100 µM | [10] 41.6 µM | [11] > 100 µM | [12] 56.1 µM | [13] > 100 µM | [14] > 100 µM | [15] > 100 µM | [16] 32.4 µM | [17] 52.8 µM

N#Cc1c(-c2ccco2)cc(-c2ccccc2)nc1O
inactive: [2] > 100 µM | [3] > 100 µM | [4] > 100 µM | [5] > 100 µM | [6] > 100 µM | [7] > 100 µM | [8] > 100 µM | [9] 63.4 µM | [18] > 100 µM | [10] > 100 µM | [11] > 100 µM | [12] > 100 µM | [13] > 100 µM | [15] 56.4 µM | [16] > 100 µM | [17] > 100 µM

CC(C)C(=O)NS(=O)(=O)c1ccccc1
inactive: [1] > 100 µM | [2] > 100 µM | [3] > 100 µM | [4] > 100 µM | [5] > 100 µM | [6] > 100 µM | [7] > 100 µM | [8] > 100 µM | [9] > 100 µM | [18] > 100 µM | [10] > 100 µM | [11] > 100 µM | [12] > 100 µM | [13] > 100 µM | [14] > 100 µM | [15] > 100 µM | [16] > 100 µM | [17] > 100 µM

N#C/N=C(/NCCc1c[nH]c2ccccc12)Oc1ccccc1
inactive: [2] 21.9 µM | [3] 26.7 µM | [4] 52.5 µM | [5] 21.6 µM | [7] 34.8 µM | [8] > 100 µM | [9] 73.3 µM | [18] > 100 µM | [10] > 100 µM | [11] 45.8 µM | [12] 97.9 µM | [13] > 100 µM | [15] 43 µM | [16] 35 µM | [17] 75.3 µM

Nc1n[n+]([O-])c2ccccc2[n+]1[O-] [TIRAPAZAMINE]
inactive: [1] 46.2 µM | [2] > 100 µM | [3] > 100 µM | [5] > 100 µM | [6] 29.7 µM | [7] > 100 µM | [9] > 100 µM | [18] > 100 µM | [10] > 100 µM | [11] > 100 µM | [12] > 100 µM | [13] > 100 µM | [14] > 100 µM | [15] 29.6 µM | [17] 61.7 µM

CC(C)OP(=O)(NC(=S)c1ccccc1)OC(C)C
inactive: [1] > 100 µM | [2] 74.5 µM | [3] > 100 µM | [4] > 100 µM | [6] > 100 µM | [7] 43.5 µM | [8] > 100 µM | [9] > 100 µM | [18] > 100 µM | [10] > 100 µM | [11] > 100 µM | [12] > 100 µM | [13] > 100 µM | [14] > 100 µM | [15] > 100 µM | [17] 71.1 µM

COc1c2nc(CCl)[nH]c(=O)c2c(OC)c2nc(CCl)[nH]c(=O)c12
inactive: [1] > 100 µM | [2] > 100 µM | [4] > 100 µM | [5] > 100 µM | [6] > 100 µM | [7] > 100 µM | [8] > 100 µM | [9] > 100 µM | [18] > 100 µM | [10] > 100 µM | [11] > 100 µM | [12] > 100 µM | [13] > 100 µM | [14] > 100 µM | [15] > 100 µM | [17] > 100 µM
